Patent US11248234B2, “Herbicide-resistant hydroxyphenylpyruvate dioxygenases” (BASF SE, priority 2015, dated 2022)
Entries after “also recorded” stand apart in the source; their conditions may differ.

What was measured:
[1] = target: Scenedesmus HPPD (Seq ID: 2) (Tetradesmus obliquus, UniProt A0A383WMN4, N195D); assay: In vitro HPPD activity assay; type: biochemical
Experimental: (§1) HPPD produces homogentisic acid and CO2 from 4-hydroxyphenylpyruvate (4-HPP) and O2. The activity assay for HPPD is based on the analysis of homogentisic acid by reversed phase HPLC.
(§2) The assay mixture can contain 150 mM potassium phosphate buffer pH 7.0, 50 mM L-ascorbic acid, 100 μM Catalase (Sigma-Aldrich), 1 μM FeSO4 and 0.2 units of purified mutated HPPD enzyme in a total volume of 505 μl. 1 unit is defined as the amount of enzyme that is required to produce 1 nmol of HGA per minute at 20° C.
(§3) After a preincubation of 30 min the reaction is started by adding 4-HPP to a final concentration of 0.05 mM. The reaction is allowed to proceed for 45 min at room temperature. The reaction is stopped by the addition of 50 μl of 4.5 M phosphoric acid. The sample is filtered using a […] pore size PVDF filtration device.
(§4) 5 μl of the cleared sample is analyzed on an UPLC HSS T3 column (particle size 1.8 μm, dimensions 2.1×50 mm; Waters) by isocratic elution using 90% 20 mM NaH2PO4 pH 2.2, 10% methanol (v/v).
(§5) HGA is detected electrochemically at 750 mV (mode: DC; polarity: positive) and quantified by integrating peak areas (Empower software; Waters).
(§6) Inhibitors are dissolved in DMSO (dimethylsulfoxide) to a concentration of 0.5 mM. From this stock solution serial five-fold dilutions are prepared in DMSO, which are used in the assay. The respective inhibitor solution accounts for 1% of the assay volume. Thus, final inhibitor concentrations range from 5 μM to 320 pM, respectively. Activities are normalized by setting the uninhibited enzyme activity to 100%. IC50 values are calculated using non-linear regression.
(§7) Using methods which are described in the above examples or well known in the art, purified, recombinant mutated HPPD enzymes are characterized with respect to their kinetic properties and sensitivity towards HPPD inhibiting herbicides. Apparent michaelis constants (Km) and maximal reaction velocities (Vmax) are calculated by non-linear regression with the software GraphPad Prism 5 (GraphPad Software, La Jolla, USA) using a substrate inhibition model. Apparent kcat values are calculated from Vmax assuming 100% purity of the enzyme preparation. Weighted means (by standard error) of Km and IC50 values are calculated from at least three independent experiments. The Cheng-Prusoff equation for competitive inhibition (Cheng, Y. C.; Prusoff, W. H. Biochem Pharmacol 1973, 22, 3099-3108) is used to calculate dissociation constants (Ki).
(§8) Field performance of the HPPD enzyme, which is used as a herbicide tolerance trait may depend not only on its lack of sensitivity towards HPPD inhibiting herbicides but also on its activity. To assess the potential performance of a herbicide tolerance trait a tolerance index (TI) is calculated using the following formula: […]
(§9) Easy comparison and ranking of each trait is enabled by normalizing tolerance indexes on Arabidopsis wild-type HPPD.

[2] = target: Scenedesmus Short HPPD (Seq ID: 4) (Tetradesmus obliquus, UniProt A0A383WMN4, DEL398-433/N195D); assay: In vitro HPPD activity assay; type: biochemical
Experimental: as §1, §2, §3, §4, §5, §6, §7, §8, §9

[3] = target: T1, Arabidopsis HPPD (Seq ID: 42) (Arabidopsis thaliana, UniProt P93836); assay: In vitro HPPD activity assay (homogentisic acid by HPLC); type: biochemical
T1 construct: His6; made in house; host or cells: E. coli BL21 (DE3)
T1 sequence (P93836 1-445): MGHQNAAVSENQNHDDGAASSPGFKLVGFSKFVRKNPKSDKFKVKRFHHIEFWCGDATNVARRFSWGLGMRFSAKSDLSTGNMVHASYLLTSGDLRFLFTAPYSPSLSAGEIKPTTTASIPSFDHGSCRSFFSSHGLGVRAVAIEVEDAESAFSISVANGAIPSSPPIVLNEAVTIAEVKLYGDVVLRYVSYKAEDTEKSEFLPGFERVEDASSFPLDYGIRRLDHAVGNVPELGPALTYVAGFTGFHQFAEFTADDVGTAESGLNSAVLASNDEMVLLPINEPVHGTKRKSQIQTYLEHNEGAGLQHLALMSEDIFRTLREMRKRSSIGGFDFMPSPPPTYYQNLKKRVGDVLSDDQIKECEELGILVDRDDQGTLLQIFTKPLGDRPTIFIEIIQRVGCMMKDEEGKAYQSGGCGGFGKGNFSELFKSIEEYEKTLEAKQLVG
Experimental: as §1, §2, §3, §4, §5
as §6, with “Thus, final inhibitor concentrations range from 5 μM to 320 pM, respectively.” left out
as §7, with “Apparent kcat values are calculated from Vmax assuming 100% purity of the enzyme preparation.” left out, “experiments.” for “experiments. The Cheng-Prusoff equation for competitive inhibition (Cheng, Y. C.; Prusoff, W. H. Biochem Pharmacol 1973, 22, 3099-3108) is used to calculate dissociation constants (Ki).”
as §8, §9

SoHPPD V251A (short) = assay: In vitro HPPD activity assay; type: biochemical, Scenedesmus obliquus; settings: normalized on Arabidopsis wild-type HPPD (SEQ ID NO:42)
Experimental: as §1, §2, §3, §4, §5, §6, §7, §8, §9

[4] = test system: SoHPPD A318R, L350M (short); assay: In vitro HPPD activity assay; type: biochemical, Scenedesmus obliquus; settings: normalized on Arabidopsis wild-type HPPD (SEQ ID NO:42)
Experimental: as §1, §2, §3, §4, §5, §6, §7, §8, §9

[5] = test system: SoHPPD K326E, E345Q (short); assay: In vitro HPPD activity assay; type: biochemical, Scenedesmus obliquus; settings: normalized on Arabidopsis wild-type HPPD (SEQ ID NO:42)
Experimental: as §1, §2, §3, §4, §5, §6, §7, §8, §9

[6] = test system: SoHPPD F39W, L367V, I375L (short); assay: In vitro HPPD activity assay; type: biochemical, Scenedesmus obliquus; settings: normalized on Arabidopsis wild-type HPPD (SEQ ID NO:42)
Experimental: as §1, §2, §3, §4, §5, §6, §7, §8, §9

SoHPPD H306K (short) = assay: In vitro HPPD activity assay; type: biochemical, Scenedesmus obliquus; settings: normalized on Arabidopsis wild-type HPPD (SEQ ID NO:42)
Experimental: as §1, §2, §3, §4, §5, §6, §7, §8, §9

SoHPPD E345Q (short) = assay: In vitro HPPD activity assay; type: biochemical, Scenedesmus obliquus; settings: normalized on Arabidopsis wild-type HPPD (SEQ ID NO:42)
Experimental: as §1, §2, §3, §4, §5, §6, §7, §8, §9

SoHPPD I455V = assay: In vitro HPPD activity assay; type: biochemical, Scenedesmus obliquus; settings: normalized on Arabidopsis wild-type HPPD (SEQ ID NO:42)
Experimental: as §1, §2, §3, §4, §5, §6, §7, §8, §9

SoHPPD Q317H (short) = assay: In vitro HPPD activity assay; type: biochemical, Scenedesmus obliquus; settings: normalized on Arabidopsis wild-type HPPD (SEQ ID NO:42)
Experimental: as §1, §2, §3, §4, §5, §6, §7, §8, §9

[7] = test system: SoHPPD Q317H, A318G, E345Q; assay: In vitro HPPD activity assay; type: biochemical, Scenedesmus obliquus; settings: normalized on Arabidopsis wild-type HPPD (SEQ ID NO:42)
Experimental: as §1, §2, §3, §4, §5, §6, §7, §8, §9

SoHPPD A318R, L350M = assay: In vitro HPPD activity assay; type: biochemical, Scenedesmus obliquus; settings: normalized on Arabidopsis wild-type HPPD (SEQ ID NO:42)
Experimental: as §1, §2, §3, §4, §5, §6, §7, §8, §9

SoHPPD Q317M (short) = assay: In vitro HPPD activity assay; type: biochemical, Scenedesmus obliquus; settings: normalized on Arabidopsis wild-type HPPD (SEQ ID NO:42)
Experimental: as §1, §2, §3, §4, §5, §6, §7, §8, §9

[8] = test system: SoHPPD Q317H, A318G, E345Q (short); assay: In vitro HPPD activity assay; type: biochemical, Scenedesmus obliquus; settings: normalized on Arabidopsis wild-type HPPD (SEQ ID NO:42)
Experimental: as §1, §2, §3, §4, §5, §6, §7, §8, §9

SoHPPD F363I = assay: In vitro HPPD activity assay; type: biochemical, Scenedesmus obliquus; settings: normalized on Arabidopsis wild-type HPPD (SEQ ID NO:42)
Experimental: as §1, §2, §3, §4, §5, §6, §7, §8, §9

SoHPPD E379Q (short) = assay: In vitro HPPD activity assay; type: biochemical, Scenedesmus obliquus; settings: normalized on Arabidopsis wild-type HPPD (SEQ ID NO:42)
Experimental: as §1, §2, §3, §4, §5, §6, §7, §8, §9

SoHPPD L367V, I375L = assay: In vitro HPPD activity assay; type: biochemical, Scenedesmus obliquus; settings: normalized on Arabidopsis wild-type HPPD (SEQ ID NO:42)
Experimental: as §1, §2, §3, §4, §5, §6, §7, §8, §9

SoHPPD Q317H = assay: In vitro HPPD activity assay; type: biochemical, Scenedesmus obliquus; settings: normalized on Arabidopsis wild-type HPPD (SEQ ID NO:42)
Experimental: as §1, §2, §3, §4, §5, §6, §7, §8, §9

[9] = test system: SoHPPD A318P, A319P (short); assay: In vitro HPPD activity assay; type: biochemical, Scenedesmus obliquus; settings: normalized on Arabidopsis wild-type HPPD (SEQ ID NO:42)
Experimental: as §1, §2, §3, §4, §5, §6, §7, §8, §9

SoHPPD I419V (short) = assay: In vitro HPPD activity assay; type: biochemical, Scenedesmus obliquus; settings: normalized on Arabidopsis wild-type HPPD (SEQ ID NO:42)
Experimental: as §1, §2, §3, §4, §5, §6, §7, §8, §9

[10] = test system: SoHPPD L367V, I375L (short); assay: In vitro HPPD activity assay; type: biochemical, Scenedesmus obliquus; settings: normalized on Arabidopsis wild-type HPPD (SEQ ID NO:42)
Experimental: as §1, §2, §3, §4, §5, §6, §7, §8, §9

SoHPPD F363I (short) = assay: In vitro HPPD activity assay; type: biochemical, Scenedesmus obliquus; settings: normalized on Arabidopsis wild-type HPPD (SEQ ID NO:42)
Experimental: as §1, §2, §3, §4, §5, §6, §7, §8, §9

[11] = apparent michaelis constant, substrate inhibition model, read-out: Km (4-HPP)
[12] = apparent, from Vmax assuming 100% purity
[13] = normalized on Arabidopsis wild-type HPPD (SEQ ID NO:42)

Scenedesmus Short HPPD (Seq ID: 4), sequence (A0A383WMN4 entry or part of it N195D/DEL398-433): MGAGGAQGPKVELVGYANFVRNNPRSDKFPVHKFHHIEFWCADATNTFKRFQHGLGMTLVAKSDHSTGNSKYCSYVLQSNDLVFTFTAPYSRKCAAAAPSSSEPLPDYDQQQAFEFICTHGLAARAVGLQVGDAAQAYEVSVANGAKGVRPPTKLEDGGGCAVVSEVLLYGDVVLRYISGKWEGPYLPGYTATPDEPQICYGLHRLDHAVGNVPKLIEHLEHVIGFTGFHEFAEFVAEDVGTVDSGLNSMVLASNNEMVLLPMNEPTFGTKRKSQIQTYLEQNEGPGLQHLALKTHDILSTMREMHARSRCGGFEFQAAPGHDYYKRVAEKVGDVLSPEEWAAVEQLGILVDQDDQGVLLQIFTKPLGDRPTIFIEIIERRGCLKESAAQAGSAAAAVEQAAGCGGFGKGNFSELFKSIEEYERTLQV
Scenedesmus HPPD (Seq ID: 2), sequence (A0A383WMN4 entry or part of it N195D): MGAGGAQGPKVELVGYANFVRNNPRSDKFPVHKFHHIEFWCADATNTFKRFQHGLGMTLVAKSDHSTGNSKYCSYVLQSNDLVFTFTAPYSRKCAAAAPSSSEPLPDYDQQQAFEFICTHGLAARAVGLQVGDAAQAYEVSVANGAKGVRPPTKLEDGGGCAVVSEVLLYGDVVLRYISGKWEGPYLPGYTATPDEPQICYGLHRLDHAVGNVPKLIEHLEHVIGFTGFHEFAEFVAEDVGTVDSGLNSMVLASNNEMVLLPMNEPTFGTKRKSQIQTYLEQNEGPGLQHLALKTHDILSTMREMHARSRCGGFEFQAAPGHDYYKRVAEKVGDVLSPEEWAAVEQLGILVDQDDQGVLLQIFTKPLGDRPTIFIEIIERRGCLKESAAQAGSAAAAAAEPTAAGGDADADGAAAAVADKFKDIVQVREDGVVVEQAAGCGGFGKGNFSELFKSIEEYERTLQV

CN(c1c(Cl)ccc(C2=C(O)c3ncccc3C(C)(C)S2(=O)=O)c1Cl)S(C)(=O)=O [Inhibitor 3, N-[2,6-dichloro-3-(8-hydroxy-5,5-dimethyl-6,6-dioxo-thiopyrano[4,3-b]pyridin-7-yl)phenyl]-N-methyl-methanesulfonamide]
Ki [1]: 110 nM | Ki [2]: 580 nM

O=C(O)C(=O)Cc1ccc(O)cc1 [Inhibitor 4-HPP, 4-hydroxyphenylpyruvate]
Km [1, 11]: 160 µM | kcat [1, 12]: 6 s⁻¹ | Km [2, 11]: 89 µM | kcat [2, 12]: 17 s⁻¹ | Km [3, 11]: 13 µM | kcat [3, 12]: 12.9 s⁻¹

CC[S+]([O-])c1c(Cl)cc(F)c(C(=O)Nc2nnnn2C)c1Cl (stereo not shown) [Inhibitor 9, 2,4-dichloro-3-ethylsulfinyl-6-fluoro-N-(1-methyltetrazol-5-yl)benzamide]
TI (normalized tolerance index) (SoHPPD V251A (short)): 0.1 | TI (normalized tolerance index) [4]: 1.2 | TI (normalized tolerance index) [5]: 0.1 | TI (normalized tolerance index) [6]: 0.2 | TI (normalized tolerance index) (SoHPPD H306K (short)): 0.2 | TI (normalized tolerance index) (SoHPPD E345Q (short)): 0.2 | TI (normalized tolerance index) (SoHPPD I455V): 0.4 | TI (normalized tolerance index) (SoHPPD Q317H (short)): 0.7 | TI (normalized tolerance index) [7]: 0.1 | TI (normalized tolerance index) (SoHPPD A318R, L350M): 0.2 | TI (normalized tolerance index) (SoHPPD Q317M (short)): 1.1 | TI (normalized tolerance index) [8]: 0.9 | TI (normalized tolerance index) (SoHPPD F363I): 2,7 | TI (normalized tolerance index) (SoHPPD E379Q (short)): 0.2 | TI (normalized tolerance index) (SoHPPD L367V, I375L): 0.1 | TI (normalized tolerance index) (SoHPPD Q317H): 0.1 | TI (normalized tolerance index) [9]: 0.7 | TI (normalized tolerance index) (SoHPPD I419V (short)): 0.3 | TI (normalized tolerance index) [10]: 0.4 | TI (normalized tolerance index) (SoHPPD F363I (short)): not inhibited; also recorded: no inhi- | TI (normalized tolerance index) [1, 13]: 0.1 | TI (normalized tolerance index) [2, 13]: 1.2 | TI (normalized tolerance index) ([3]; benchmark enzyme, normalized on Arabidopsis wild-type HPPD): 1.0
